Structures can show the parent of a compound that is named as a salt. Where two headings read alike, the source gives them in different places.
Key:
GABA-AT = target: T1, GABA-AT (Sus scrofa, UniProt P80147); assay: Coupled enzyme assay, time-dependent inactivation of GABA-AT; assay type: biochemical, pig
T1 construct: GABA-AT was isolated from pig brains and purified according to a literature procedure; from tissue; host or cells: pig brain
Method: (§1) Kinetic Studies of Fluorine-Substituted Cyclohexene Analogues.
(§2) hOAT and PYCR1 were expressed, grown, and purified according to literature procedures.4, 5 GABA-AT was isolated from pig brains and purified according to a literature procedure.6 Coupled enzyme assays for GABA-AT, hOAT, Ala-AT, and Asp-AT were carried out according to previous procedures.7, 8

hOAT = target: T2, hOAT (Homo sapiens, UniProt P04181); assay: Coupled enzyme assay, time-dependent inactivation of hOAT; assay type: biochemical
T2 construct: made in house
T2 sequence (P04181 26-439): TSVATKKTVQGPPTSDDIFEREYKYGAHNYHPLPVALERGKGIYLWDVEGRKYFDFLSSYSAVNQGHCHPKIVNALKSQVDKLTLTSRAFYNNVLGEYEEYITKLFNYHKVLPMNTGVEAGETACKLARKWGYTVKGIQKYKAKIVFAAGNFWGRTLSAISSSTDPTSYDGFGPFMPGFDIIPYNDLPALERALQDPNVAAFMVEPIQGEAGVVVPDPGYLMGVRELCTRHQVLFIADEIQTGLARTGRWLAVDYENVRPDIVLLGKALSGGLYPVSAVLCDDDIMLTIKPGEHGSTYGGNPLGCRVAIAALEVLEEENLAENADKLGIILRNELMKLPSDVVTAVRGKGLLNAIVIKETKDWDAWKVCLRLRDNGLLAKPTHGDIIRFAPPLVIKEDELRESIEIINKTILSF
Method: as §1, §2

HCC tumor = conditions: doses of 0.1 and 1.0 mg/kg; cited from earlier work
[1] = inactivation of GABA-AT, pH 8.0
[2] = inactivation of GABA-AT, pH 8.0, read-out: kinact/KI (converted)
[3] = read-out: kinact/KI (converted)
[4] = GABA-AT, pH 8.0, bound: KI is greater than kobs (max)/ratio (footnote b)
[5] = GABA-AT, pH 8.0, bound: kinact is greater than maximum kobs in time-dependent assay (footnote b)

T1 sequence (P80147 29-500): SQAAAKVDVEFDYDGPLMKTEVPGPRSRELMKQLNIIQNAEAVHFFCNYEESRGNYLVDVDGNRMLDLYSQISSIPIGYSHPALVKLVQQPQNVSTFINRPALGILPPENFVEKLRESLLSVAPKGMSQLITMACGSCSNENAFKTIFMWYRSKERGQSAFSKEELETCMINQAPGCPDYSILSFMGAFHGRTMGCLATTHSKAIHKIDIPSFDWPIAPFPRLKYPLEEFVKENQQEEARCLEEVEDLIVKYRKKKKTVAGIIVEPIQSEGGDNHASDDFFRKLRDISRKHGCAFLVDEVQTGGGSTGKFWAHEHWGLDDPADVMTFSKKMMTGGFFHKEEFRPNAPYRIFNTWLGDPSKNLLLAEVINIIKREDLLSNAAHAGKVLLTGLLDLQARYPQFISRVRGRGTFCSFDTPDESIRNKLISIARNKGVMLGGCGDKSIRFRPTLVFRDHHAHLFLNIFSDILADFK

SMILES | Ki (GABA-AT; [1]) [µM] | kinact (GABA-AT; [1]) [s⁻¹] | kinact/KI (GABA-AT; [2]) [M⁻¹ s⁻¹] | kinact/KI (hOAT; [3]) [M⁻¹ s⁻¹] | in vivo HCC tumor growth (HCC tumor) | α-fetoprotein levels (a biomarker for HCC) (HCC tumor) | Ki (hOAT) [µM] | kinact (hOAT) [s⁻¹] | kinact/KI (hOAT) [M⁻¹ s⁻¹] | kinact (hOAT; read-out: kinact (converted)) [s⁻¹] | Ki (GABA-AT; GABA-AT, pH 6.5) [µM] | kinact (GABA-AT; GABA-AT, pH 6.5) [s⁻¹] | kinact/KI (GABA-AT; GABA-AT, pH 6.5, read-out: kinact/KI (converted)) [M⁻¹ s⁻¹] | Ki (GABA-AT; [4]) [µM] | kinact (GABA-AT; [5]) [s⁻¹] | kinact/KI (GABA-AT; GABA-AT, pH 8.0, ratio determined by the slope of kobs vs [I] (footnote b), read-out: kinact/KI (converted)) [M⁻¹ s⁻¹] | kinact/KI (GABA-AT; pH 8) [M⁻¹ s⁻¹]
N[C@H]1C[C@@H](C(=O)O)C[C@@H]1F [Compound 1, (1R,3S,4S)-3-amino-4-fluorocyclopentane-1-carboxylic acid, reference compound] | 78 ± 40 | 0.000283 | 3.67 | 1 |  |  |  |  |  |  |  |  |  |  |  |  | 
N[C@H]1C[C@@H](C(=O)O)CC1=C(C(F)(F)F)C(F)(F)F [Compound 7, (1S,3S)-3-Amino-4-(hexafluoropropan-2-ylidenyl)cyclopentane-1-carboxylic Acid, reference compound] |  |  |  |  | suppressed | dramatically reduced | 65 ± 10 | 0.00095 ± 5e-05 | 14.5 |  |  |  |  |  |  |  | 
N[C@H]1C=C(C(=O)O)CC[C@@H]1F [Compound 8, (3S,4S)-3-Amino-4-fluorocyclohex-1-ene-1-carboxylic acid hydrochloride] | 2530 ± 710 | 0.00163 | 0.65 | 42.7 |  |  | 31 ± 7 |  |  | 0.00133 |  |  |  |  |  |  | 
N[C@H]1C=C(C(=O)O)CCC1(F)F [Compound 9, (S)-3-Amino-4,4-difluorocyclohex-1-ene-1-carboxylic acid hydrochloride] |  |  |  | 339 |  |  | 2.3 ± 0.7 |  |  | 0.0008 | 1100 | 0.00333 | 3 | > 120 | > 0.003 | 25.3 | 
N[C@H]1CC(C(=O)O)=CC[C@@H]1F [Compound 10, (4S,5S)-5-Amino-4-fluorocyclohex-1-ene-1-carboxylic acid hydrochloride] | 4280 ± 2050 | 0.000467 | 0.108 | 0.283 |  |  | 4380 ± 860 |  |  | 0.00125 |  |  |  |  |  |  | 
N[C@H]1CC(C(=O)O)=CCC1(F)F [Compound 11, (S)-5-Amino-4,4-difluorocyclohex-1-ene-1-carboxylic acid hydrochloride] |  |  |  | 2.5 |  |  | 540 ± 17 |  |  | 0.00138 |  |  |  | > 9630 | > 0.00483 |  | 0.5
